PubChem BioAssay (NCI)
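Step 1: Grow cells in 96-well plates. Step 2: Expose to compound for 48 hours at 5 concentrations. Step 3: Interpolate endpoints linearly; if unreached, use highest concentration. TGI: total growth inhibition.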

Legend:
Assay in all cases: DTP human tumour cell line panel, 48 h
786-0 renal = system: 786-0 renal
A498 renal = system: A498 renal
A549 NSCLC = system: A549 NSCLC
ACHN renal = system: ACHN renal
CAKI-1 renal = system: CAKI-1 renal
CCRF-CEM leukemia = system: CCRF-CEM leukemia
COLO 205 colon = system: COLO 205 colon
DU-145 prostate = system: DU-145 prostate
EKVX NSCLC = system: EKVX NSCLC
HCC-2998 colon = system: HCC-2998 colon
HCT-116 colon = system: HCT-116 colon
HCT-15 colon = system: HCT-15 colon
HL-60(TB) leukemia = system: HL-60(TB) leukemia
HOP-62 NSCLC = system: HOP-62 NSCLC
HS 578T breast = system: HS 578T breast
HT29 colon = system: HT29 colon
IGROV1 ovarian = system: IGROV1 ovarian
K-562 leukemia = system: K-562 leukemia
KM12 colon = system: KM12 colon
LOX IMVI melanoma = system: LOX IMVI melanoma
M14 melanoma = system: M14 melanoma
MALME-3M melanoma = system: MALME-3M melanoma
MCF7 breast = system: MCF7 breast
MDA-MB-231 breast = system: MDA-MB-231 breast
MDA-MB-435 = system: MDA-MB-435
MDA-N = system: MDA-N
MOLT-4 leukemia = system: MOLT-4 leukemia
NCI-H226 lung = system: NCI-H226 lung
NCI-H23 lung = system: NCI-H23 lung
NCI-H460 lung = system: NCI-H460 lung
NCI-H522 lung = system: NCI-H522 lung
NCI/ADR-RES ovarian = system: NCI/ADR-RES ovarian
OVCAR-3 ovarian = system: OVCAR-3 ovarian
OVCAR-4 ovarian = system: OVCAR-4 ovarian
OVCAR-5 ovarian = system: OVCAR-5 ovarian
OVCAR-8 ovarian = system: OVCAR-8 ovarian
PC-3 prostate = system: PC-3 prostate
RPMI-8226 leukemia = system: RPMI-8226 leukemia
RXF 393 renal = system: RXF 393 renal
SF-268 CNS = system: SF-268 CNS
SF-295 CNS = system: SF-295 CNS
SF-539 CNS = system: SF-539 CNS
SK-MEL-2 melanoma = system: SK-MEL-2 melanoma
SK-MEL-28 melanoma = system: SK-MEL-28 melanoma
SK-MEL-5 melanoma = system: SK-MEL-5 melanoma
SK-OV-3 ovarian = system: SK-OV-3 ovarian
SN12C renal = system: SN12C renal
SNB-19 CNS = system: SNB-19 CNS
SNB-75 CNS = system: SNB-75 CNS
SR leukemia = system: SR leukemia
SW-620 colon = system: SW-620 colon
T-47D breast = system: T-47D breast
TK-10 renal = system: TK-10 renal
U251 CNS = system: U251 CNS
UACC-257 melanoma = system: UACC-257 melanoma
UACC-62 melanoma = system: UACC-62 melanoma
UO-31 renal = system: UO-31 renal
HOP-92 NSCLC = system: HOP-92 NSCLC

## CN1CCC(OC(=O)Oc2ccccc2)(c2ccccc2)CC1
786-0 renal
  TGI: > 100 µM
A498 renal
  TGI: 56.4 µM
A549 NSCLC
  TGI: > 100 µM
ACHN renal
  TGI: > 100 µM
CAKI-1 renal
  TGI: > 100 µM
CCRF-CEM leukemia
  TGI: 55.1 µM
COLO 205 colon
  TGI: 25.8 µM
DU-145 prostate
  TGI: > 100 µM
EKVX NSCLC
  TGI: 79.5 µM
HCC-2998 colon
  TGI: 38.3 µM
HCT-116 colon
  TGI: 30.5 µM
HCT-15 colon
  TGI: 36.8 µM
HL-60(TB) leukemia
  TGI: 36.6 µM
HOP-62 NSCLC
  TGI: 40.6 µM
HS 578T breast
  TGI: 54.3 µM
HT29 colon
  TGI: 26 µM
IGROV1 ovarian
  TGI: 64.5 µM
K-562 leukemia
  TGI: 55.3 µM
KM12 colon
  TGI: 37.5 µM
LOX IMVI melanoma
  TGI: 34 µM
M14 melanoma
  TGI: 28.2 µM
MALME-3M melanoma
  TGI: 32.5 µM
MCF7 breast
  TGI: 35.1 µM
MDA-MB-231 breast
  TGI: 29.1 µM
MDA-MB-435
  TGI: 33.7 µM
MDA-N
  TGI: 34.9 µM
MOLT-4 leukemia
  TGI: 36.4 µM
NCI-H226 lung
  TGI: 62.7 µM
NCI-H23 lung
  TGI: 35.7 µM
NCI-H460 lung
  TGI: 39.3 µM
NCI-H522 lung
  TGI: 49.8 µM
NCI/ADR-RES ovarian
  TGI: 39.2 µM
OVCAR-3 ovarian
  TGI: > 100 µM
OVCAR-4 ovarian
  TGI: 48.4 µM
OVCAR-5 ovarian
  TGI: 84.2 µM
OVCAR-8 ovarian
  TGI: 33 µM
PC-3 prostate
  TGI: 45.8 µM
RPMI-8226 leukemia
  TGI: 35.7 µM
RXF 393 renal
  TGI: > 100 µM
SF-268 CNS
  TGI: > 100 µM
SF-295 CNS
  TGI: 55.4 µM
SF-539 CNS
  TGI: 26.5 µM
SK-MEL-2 melanoma
  TGI: 33.2 µM
SK-MEL-28 melanoma
  TGI: 41.7 µM
SK-MEL-5 melanoma
  TGI: 34.2 µM
SK-OV-3 ovarian
  TGI: 52.9 µM
SN12C renal
  TGI: 43.8 µM
SNB-19 CNS
  TGI: 69.2 µM
SNB-75 CNS
  TGI: 63.3 µM
SR leukemia
  TGI: 42.6 µM
SW-620 colon
  TGI: 59.6 µM
T-47D breast
  TGI: 52.1 µM
TK-10 renal
  TGI: 37.7 µM
U251 CNS
  TGI: 44.9 µM
UACC-257 melanoma
  TGI: 34 µM
UACC-62 melanoma
  TGI: 37.6 µM
UO-31 renal
  TGI: 54.2 µM

## COc1ccc(-c2c(C(C)=O)c(-c3ccccc3)n(C3OC(COC(C)=O)C(OC(C)=O)C(OC(C)=O)C3OC(C)=O)c(=S)c2C#N)cc1 (stereo not given)
786-0 renal
  TGI: > 100 µM
A498 renal
  TGI: > 100 µM
A549 NSCLC
  TGI: > 100 µM
ACHN renal
  TGI: > 100 µM
CAKI-1 renal
  TGI: > 100 µM
CCRF-CEM leukemia
  TGI: > 100 µM
COLO 205 colon
  TGI: > 100 µM
DU-145 prostate
  TGI: > 100 µM
EKVX NSCLC
  TGI: > 100 µM
HCC-2998 colon
  TGI: > 100 µM
HCT-116 colon
  TGI: > 100 µM
HCT-15 colon
  TGI: > 100 µM
HL-60(TB) leukemia
  TGI: > 100 µM
HOP-62 NSCLC
  TGI: > 100 µM
HOP-92 NSCLC
  TGI: 71.7 µM
HT29 colon
  TGI: > 100 µM
IGROV1 ovarian
  TGI: > 100 µM
K-562 leukemia
  TGI: > 100 µM
KM12 colon
  TGI: > 100 µM
LOX IMVI melanoma
  TGI: > 100 µM
M14 melanoma
  TGI: > 100 µM
MALME-3M melanoma
  TGI: > 100 µM
MCF7 breast
  TGI: > 100 µM
MDA-MB-231 breast
  TGI: > 100 µM
MDA-MB-435
  TGI: > 100 µM
MDA-N
  TGI: > 100 µM
MOLT-4 leukemia
  TGI: > 100 µM
NCI-H226 lung
  TGI: > 100 µM
NCI-H23 lung
  TGI: > 100 µM
NCI-H460 lung
  TGI: > 100 µM
NCI-H522 lung
  TGI: > 100 µM
NCI/ADR-RES ovarian
  TGI: > 100 µM
OVCAR-3 ovarian
  TGI: > 100 µM
OVCAR-4 ovarian
  TGI: > 100 µM
OVCAR-5 ovarian
  TGI: > 100 µM
OVCAR-8 ovarian
  TGI: > 100 µM
RXF 393 renal
  TGI: > 100 µM
SF-268 CNS
  TGI: > 100 µM
SF-295 CNS
  TGI: > 100 µM
SF-539 CNS
  TGI: > 100 µM
SK-MEL-28 melanoma
  TGI: > 100 µM
SK-MEL-5 melanoma
  TGI: > 100 µM
SK-OV-3 ovarian
  TGI: > 100 µM
SN12C renal
  TGI: > 100 µM
SNB-19 CNS
  TGI: > 100 µM
SNB-75 CNS
  TGI: > 100 µM
SR leukemia
  TGI: > 100 µM
SW-620 colon
  TGI: > 100 µM
T-47D breast
  TGI: > 100 µM
TK-10 renal
  TGI: > 100 µM
U251 CNS
  TGI: > 100 µM
UACC-257 melanoma
  TGI: > 100 µM
UACC-62 melanoma
  TGI: > 100 µM
